The subject of one assay is Salmonella typhimurium. The experiment in a line: MIC, serial dilution in phenol red-glucose broth. It counts as cell-based. The note with it: bactericidal, complete inhibition of growth, 37° C.; for MIC: Salmonella enterica, TYPHIMURIUM, read-out: MIC values for microorganism N (Salmonella typhimurium). As to the method: (§1) The minimum inhibitory concentrations (MIC values) of the above compounds and their two-component combinations of 1:1 ratio by weight against the following microorganisms arising from mastitis and metritis processes of cattle were tested by using the serial dilution method in a phenol red-glucose broth medium (manufactured by DIFCO) or, by using a Sabouraud's broth medium, respectively in the cases of fungal strains.
N--Salmonella typhimurium
(§2) Bacterial strains were cultivated at 37° C. whilst the fungal strain (Candida albicans) was propagated at 26° C.

The next assay deals with Candida albicans. As to the kind of experiment: MIC, serial dilution in Sabouraud's broth. The format is cell-based. Conditions: for MIC: Candida albicans, read-out: MIC values for microorganism G (Candida albicans). The procedure:
as §1, §2

The test system of the next assay is Aspergillus fumigatus. As to the kind of experiment: MIC, serial dilution in Sabouraud's broth. It counts as cell-based. The note with it: complete inhibition of growth; for MIC: Aspergillus fumigatus, read-out: MIC values for microorganism Z (Aspergillus fumigatus). As to the method: as §1
Z--Aspergillus fumigatus.
as §2

A further assay concerns Staphylococcus aureus. The experiment in a line: microbe, parasite or virus in culture. The note with it: for MIC: Staphylococcus aureus, read-out: MIC values for microorganism A (Staphylococcus aureus). The procedure:
as §1, §2

Another assay relates to Escherichia coli 17. The experiment in a line: microbe, parasite or virus in culture. Conditions: for MIC: Escherichia coli, 17, read-out: MIC values for microorganism D (Escherichia coli 17). As to the method: as §1, §2
Another assay relates to Escherichia coli 494. The experiment in a line: microbe, parasite or virus in culture. The note with it: for MIC: Escherichia coli, 494, read-out: MIC values for microorganism C (Escherichia coli 494). As to the method: as §1, §2
A further assay relates to Campylobacter jejuni. The experiment in a line: MIC in semiliquid thiol culture medium. It counts as cell-based. The note with it: bactericidal, complete inhibition of growth, 37° C.; for MIC: Campylobacter jejuni, read-out: MIC values for microorganism P (Campylobacter jejuni). As to the method:
as §1
(§3) Campylobacter strains were tested in a semiliquid thiol culture medium (manufactured by DIFCO). Bacteroides fragilis and Fusobacterium necrophorum strains were examined by using the agar dilution method on bloody agar containing also tryptose.
as §2

The test system of the next assay is Campylobacter fetus. The experiment in a line: MIC in semiliquid thiol culture medium. The format is cell-based. Conditions: bactericidal, complete inhibition of growth, 37° C.; for MIC: Campylobacter fetus, read-out: MIC values for microorganism O (Campylobacter fetus). As to the method: as §1, §3, §2
The subject of assay [1] is Streptococcus dysgalactiae. The experiment in a line: MIC, serial dilution in phenol red-glucose broth. Conditions: bactericidal, complete inhibition of growth, 37° C.; for MIC: Streptococcus dysgalactiae, read-out: MIC values for microorganism I (Streptococcus dysgalactiae). It counts as cell-based. The procedure: as §1
I--Streptococcus dysgalactiae
as §2

For another assay, the system named is Mycoplasma bovis. The experiment in a line: MIC, serial dilution in phenol red-glucose broth. The format is cell-based. The note with it: bactericidal, complete inhibition of growth, 37° C.; for MIC: Mycoplasmopsis bovis, read-out: MIC values for microorganism T (Mycoplasma bovis). As to the method:
as §1
Bacterial strains were cultivated at 37° C. whilst the fungal strain (Candida albicans) was propagated at 26° C. The minimum inhibitory concentrations (MIC values) showing a bactericidal effect, i.e. complete inhibition of the growth of microorganisms whereby the media inoculated remained sterile, are summarized in Table 1.

Another assay concerns Bacteroides fragilis. As to the kind of experiment: MIC, agar dilution method on bloody agar. The note with it: agar dilution method on bloody agar containing tryptose, 37° C.; for MIC: Bacteroides fragilis, read-out: MIC values for microorganism R (Bacteroides fragilis). The format is cell-based. The procedure:
as §1, §3, §2

A further assay concerns Streptococcus agalactiae. As to the kind of experiment: MIC, serial dilution in phenol red-glucose broth. The format is cell-based. The note with it: bactericidal, complete inhibition of growth, 37° C.; for MIC: Streptococcus agalactiae, read-out: MIC values for microorganism H (Streptococcus agalactiae). As to the method:
as §1
H--Streptococcus agalactiae
as §2

The next assay has as its system Listeria monocytogenes. As to the kind of experiment: MIC, serial dilution in phenol red-glucose broth. The format is cell-based. Conditions: bactericidal, complete inhibition of growth, 37° C.; for MIC: Listeria monocytogenes, read-out: MIC values for microorganism L (Listeria monocytogenes). The procedure: as §1
L--Listeria monocytogenes
as §2

For the next assay, the system named is Corynebacterium pyogenes. The experiment in a line: MIC, serial dilution in phenol red-glucose broth. It counts as cell-based. The note with it: bactericidal, complete inhibition of growth, 37° C.; for MIC: Corynebacterium pyogenes, read-out: MIC values for microorganism M (Corynebacterium pyogenes). The procedure: as §1
M--Corynebacterium pyogenes
as §2

In assay [2] the test system is Streptococcus zooepidemicus. The experiment in a line: MIC, serial dilution in phenol red-glucose broth. It counts as cell-based. The note with it: bactericidal, complete inhibition of growth, 37° C.; for MIC: Streptococcus equi, read-out: MIC values for microorganism B (Streptococcus zooepidemicus). The procedure:
as §1
B--Streptococcus zooepidemicus
as §2

For a further assay, the system named is Klebsiella pneumoniae. As to the kind of experiment: MIC, serial dilution in phenol red-glucose broth. It counts as cell-based. The note with it: bactericidal, complete inhibition of growth, 37° C.; for MIC: Klebsiella pneumoniae, read-out: MIC values for microorganism E (Klebsiella pneumoniae). As to the method:
as §1, §2

The next assay relates to Mycoplasma bovirhinis. As to the kind of experiment: MIC, serial dilution in phenol red-glucose broth. The format is cell-based. Conditions: bactericidal, complete inhibition of growth, 37° C.; for MIC: Mycoplasma, read-out: MIC values for microorganism U (Mycoplasma bovirhinis). The procedure: as §1, §2
The subject of another assay is Streptococcus uberis. As to the kind of experiment: MIC, serial dilution in phenol red-glucose broth. It counts as cell-based. The note with it: bactericidal, complete inhibition of growth, 37° C.; for MIC: Streptococcus uberis, read-out: MIC values for microorganism J (Streptococcus uberis). The procedure:
as §1, §2

Another assay has as its system Mycoplasma canadense. As to the kind of experiment: MIC, serial dilution in phenol red-glucose broth. The format is cell-based. The note with it: bactericidal, complete inhibition of growth, 37° C.; for MIC: Mycoplasma, read-out: MIC values for microorganism V (Mycoplasma canadense). As to the method:
as §1, §2

A further assay has as its system Streptococcus faecalis. As to the kind of experiment: MIC, serial dilution in phenol red-glucose broth. The format is cell-based. The note with it: bactericidal, complete inhibition of growth, 37° C.; for MIC: Enterococcus faecalis, read-out: MIC values for microorganism K (Streptococcus faecalis). The procedure: as §1
K--Streptococcus faecalis
as §2

The subject of assay [3] is Fusobacterium necrophorum. As to the kind of experiment: MIC, agar dilution method on bloody agar. The format is cell-based. Conditions: agar dilution method on bloody agar containing tryptose, 37° C.; for MIC: Fusobacterium necrophorum, read-out: MIC values for microorganism S (Fusobacterium necrophorum). As to the method: as §1
S--Fusobacterium necrophorum
as §3, §2
(Agar dilution tests growth on a series of plates holding different concentrations.)

The next assay relates to Pseudomonas aeruginosa. As to the kind of experiment: MIC, serial dilution in phenol red-glucose broth. The format is cell-based. Conditions: bactericidal, complete inhibition of growth, 37° C.; for MIC: Pseudomonas aeruginosa, read-out: MIC values for microorganism F (Pseudomonas aeruginosa). The procedure: as §1
F--Pseudomonas aeruginosa
as §2

The mark [4] stands for this setting: complete inhibition of growth, Sabouraud's broth, 26° C.
Where [5] appears, read: bactericidal, complete inhibition of growth, phenol red-glucose broth, 37° C.

Positions of bridges follow the written chain, without caps; N, C: chain ends. Non-standard residues stand in square brackets, D forms with d. Residues, ends and D or L forms follow the SMILES beside them. *: point of attachment. Octanoyl(6-Me) = CCC(C)CCCCC(=O)*; Dab = NCC[CH](N)C(=O)O

With `CCC(C)CCCCC(=O)NC(CCN)C(=O)NC(C(=O)NC(CCN)C(=O)NC1CCNC(=O)C(C(C)O)NC(=O)C(CCN)NC(=O)C(CCN)NC(=O)C(CC(C)C)NC(=O)C(Cc2ccccc2)NC(=O)C(CCN)NC1=O)C(C)O` (stereo not drawn) [Polymyxin B, 6,9,18-tris(2-aminoethyl)-15-benzyl-21-[2,8-bis(2-aminoethyl)-5-(1-hydroxyethyl)-15-methyl-4,7,10-trioxo-3,6,9-triazaheptadecanamido]-3-(1-hydroxyethyl)-12-isobutyl-1,4,7,10,13,16,19-heptaazacyclotricosane-2,5,8,11,14,17,20-heptaone] ({Octanoyl(6-Me)}-[Dab]T[Dab][Dab][Dab]FL[Dab][Dab]T; lactam 4-C; configuration not given here), in the assay with Salmonella typhimurium, the “MIC values for microorganism N (Salmonella typhimurium)” value amounted to 1 µg/mL. In addition, the “MIC values for microorganism G (Candida albicans)” value in the assay on Candida albicans (setting [4]) was 200 µg/mL. Besides, the “fungicidal action, in words” value in the assay on Candida albicans (substance alone) is given as “practically no fungicidal action”. Besides, the “MIC values for microorganism Z (Aspergillus fumigatus)” value with Aspergillus fumigatus came out at 200 µg/mL. In the assay with Staphylococcus aureus (setting [5]), the “MIC values for microorganism A (Staphylococcus aureus)” value is 50 µg/mL. Besides, the “MIC values for microorganism D (Escherichia coli 17)” value in the assay on Escherichia coli 17 (setting [5]) is 0.5 µg/mL. For the same compound, in the assay on Escherichia coli 494 (setting [5]), the “MIC values for microorganism C (Escherichia coli 494)” value is 0.5 µg/mL. For the same compound, the “MIC values for microorganism P (Campylobacter jejuni)” value in the assay on Campylobacter jejuni turned out to be 5 µg/mL. Besides, the “MIC values for microorganism O (Campylobacter fetus)” value in the assay with Campylobacter fetus came to 0.5 µg/mL. In addition, the “MIC values for microorganism I (Streptococcus dysgalactiae)” value in assay [1] is 5 µg/mL. Besides, the “MIC values for microorganism T (Mycoplasma bovis)” value in the assay with Mycoplasma bovis turned out to be 32 µg/mL. In the assay with Bacteroides fragilis, the “MIC values for microorganism R (Bacteroides fragilis)” value is 200 µg/mL. In the assay on Streptococcus agalactiae, the “MIC values for microorganism H (Streptococcus agalactiae)” value is 5 µg/mL. For the same compound, in the assay on Listeria monocytogenes, the “MIC values for microorganism L (Listeria monocytogenes)” value came to 5 µg/mL. In the assay with Corynebacterium pyogenes, the “MIC values for microorganism M (Corynebacterium pyogenes)” value turned out to be 200 µg/mL. Besides, the “MIC values for microorganism B (Streptococcus zooepidemicus)” value in [2] was 5 µg/mL. For the same compound, in the assay on Klebsiella pneumoniae, the “MIC values for microorganism E (Klebsiella pneumoniae)” value amounted to 5 µg/mL. Further, the “MIC values for microorganism U (Mycoplasma bovirhinis)” value in the assay on Mycoplasma bovirhinis amounted to 32 µg/mL. In the assay on Streptococcus uberis, the “MIC values for microorganism J (Streptococcus uberis)” value came to 10 µg/mL. The “MIC values for microorganism V (Mycoplasma canadense)” value with Mycoplasma canadense was determined as 32 µg/mL. Also, the “MIC values for microorganism K (Streptococcus faecalis)” value in the assay with Streptococcus faecalis amounted to 200 µg/mL. The “MIC values for microorganism S (Fusobacterium necrophorum)” value in [3] was 200 µg/mL. In the assay with Pseudomonas aeruginosa, the “MIC values for microorganism F (Pseudomonas aeruginosa)” value was 0.5 µg/mL.

Take `Clc1ccccc1C(c1ccccc1)(c1ccccc1)n1ccnc1` [Clotrimazole, 1-(2-chlorophenyl)-diphenylmethyl-1H-imidazole]: the MIC was 200 µg/mL with Salmonella typhimurium; 5 µg/mL in the assay on Candida albicans (setting [4]); 1 µg/mL with Aspergillus fumigatus; 0.5 µg/mL in the assay on Staphylococcus aureus; greater than 200 µg/mL in the assay on Escherichia coli 17; greater than 200 µg/mL in the assay with Escherichia coli 494. Further, the MIC in the assay with Campylobacter jejuni is 100 µg/mL; in the assay with Campylobacter fetus it was 100 µg/mL; in [1], 0.5 µg/mL; in the assay on Mycoplasma bovis, 32 µg/mL; in the assay with Bacteroides fragilis, 200 µg/mL; in the assay on Streptococcus agalactiae it was 5 µg/mL. Also, the MIC with Listeria monocytogenes is 5 µg/mL; in the assay with Corynebacterium pyogenes, 25 µg/mL; in assay [2] it was 0.5 µg/mL; with Klebsiella pneumoniae, greater than 200 µg/mL; in the assay on Mycoplasma bovirhinis it was 32 µg/mL; with Streptococcus uberis, 0.5 µg/mL. Further, the MIC was 32 µg/mL in the assay with Mycoplasma canadense, 5 µg/mL with Streptococcus faecalis, 100 µg/mL in [3] and greater than 200 µg/mL with Pseudomonas aeruginosa. Also, the “effect on Escherichia coli strains, in words” value with Escherichia coli 17 (substance alone) and with Escherichia coli 494 (substance alone) was “very weak effect” throughout.

As for `Cc1ccc2c(Cl)cc(Cl)c(O)c2n1` [Chlorquinaldol, 2-methyl-5,7-dichloro-8-hydroxyquinoline], the MIC in the assay with Salmonella typhimurium worked out at 200 µg/mL; with Candida albicans (setting [4]), 1 µg/mL; with Aspergillus fumigatus, 25 µg/mL; in the assay on Staphylococcus aureus, 5 µg/mL; in the assay with Escherichia coli 17 it was 5 µg/mL; in the assay on Escherichia coli 494, 5 µg/mL. The MIC is 5 µg/mL with Campylobacter jejuni; 10 µg/mL with Campylobacter fetus; 0.5 µg/mL in assay [1]; 32 µg/mL in the assay with Mycoplasma bovis; 1.5 µg/mL with Bacteroides fragilis; 0.5 µg/mL in the assay on Streptococcus agalactiae. Also, the MIC in the assay on Listeria monocytogenes worked out at 1 µg/mL; in the assay on Corynebacterium pyogenes, 5 µg/mL; in assay [2] it was 0.5 µg/mL; in the assay with Klebsiella pneumoniae, 200 µg/mL; in the assay on Mycoplasma bovirhinis, 4 µg/mL; with Streptococcus uberis, 0.5 µg/mL. In addition, the MIC in the assay on Mycoplasma canadense worked out at 8 µg/mL; with Streptococcus faecalis, 5 µg/mL; in assay [3] it was 3 µg/mL; in the assay with Pseudomonas aeruginosa, 200 µg/mL.

The record behind these values is patent US5120711A, “Synergistically active veterinary compositions and process for preparing same” (EGIS Gyogyszergyar, priority 1988, dated 1992).
